Data as given in patent publication US12503490B2, “Method of treating Gram-negative bacterial infection with isolated darobactin compounds” (Northeastern University, priority 2018, dated 2025).

Tested on: E. coli
Assay: Antagonization assay by lipopolysaccharide (LPS)
Format: cell-based
Parameters: key: +: grown; −: not grown
Method: darobactin A is a large compound of 966 Da molecular weight. The limit for penetration into Gram-negative bacteria is around 500 Da. It therefore seemed possible that darobactin A acted on the cell surface, similarly to polymyxin which targets lipopolysaccharide (LPS). In order to test this, activity of darobactin A was tested in the presence of LPS. E. coli was inoculated into 5 mL MHIIB, and grown until the cell density reach to OD600=0.1-0.9. The cell suspension was diluted to OD600=0.002 with 2×MHIIB. 40 μL of LPS solution (final concentration range from 0 to 800 μg/mL) and 2 μL of 2×MIC antibiotic solution (final concentration: polymyxin; 0.5 μg/mL, ampicillin; 16 μg/mL, darobactin A; 16 μg/mL) were mixed in a 96-well plate and fill up to 50 μL by sterile dI water. LPS and antibiotic solutions were mixed with 50 μL of E. coli cell suspensions, and incubated at 37° C. for 20 hours. The growth of E. coli was determined visually (Table 3).

Compound | growth of E. coli with 2× MIC antibiotic (LPS 0 μg/mL) | growth of E. coli with 2× MIC antibiotic (LPS 3.13 μg/mL) | growth of E. coli with 2× MIC antibiotic (LPS 6.25 μg/mL) | growth of E. coli with 2× MIC antibiotic (LPS 800 μg/mL)
Polymyxin B | − | − | + | +
CC1(C)S[C@@H]2[C@H](NC(=O)[C@H](N)c3ccccc3)C(=O)N2[C@H]1C(=O)O [Ampicillin] | − | − | − | −
